Legend:
[1] = test system: low risk organ-confined prostate cancer; test: Vascular-targeted photodynamic therapy (VTP), 6 month TRUS-guided biopsy; format: in vivo, human; conditions: study PCM201, 4 mg/kg intravenously, light 200 J/cm, men
Procedure: (§1) Men with low risk organ-confined prostate cancer (Gleason 3+3 on minimum 10 core TRUS biopsy) were recruited into two consecutive studies: PCM201 (a dose escalation study) or PCM203 (a confirmatory study). The vascular-targeted photodynamic therapy (“VTP”) procedure, carried out under general anesthesia, involved administration of TOOKAD® Soluble intravenously at 4 mg/kg, which was then activated by low power laser light delivered locally to the prostate via a brachytherapy-style transperineal template with a light density of 200 J/cm. Planned treatment volume (“PTV”, in mls) was determined by the location of tumor on biopsy and by MRI, and varied in volume from less than one lobe, to the whole prostate.
(§2) The Light Density Index (“LDI”) was calculated as LDI=Σ(n)L/PTV, where Σ(n)L is the total length of all illuminating fibers (in cm), and PTV is the planned treatment volume, in mls.
(§3) This was also correlated with the result of 6 month transrectal ultrasound (TRUS)-guided biopsy (positive or negative for any cancer).
(§4) The correlation between LDI and the volume of tissue necrosis at day 7 and with the rate of negative biopsies at Month 6 was assessed in search of a threshold.
(§5) 90 men were treated with a TOOKAD® Soluble dose of 4 mg/kg and a light dose of 200 J/cm in the two studies. Of these 89 were analyzable for LDI.

[2] = test system: low risk organ-confined prostate cancer; test: Vascular-targeted photodynamic therapy (VTP), early treatment effect on 1 week MRI (lack of gadolinium uptake); format: in vivo, human; conditions: 4 mg/kg intravenously, light 200 J/cm, men
Procedure: as §1, §2, §3, §4, §5

Substance: Palladium 3^1-oxo-15-methoxycarbonylmethyl-rhodobacteriochlorin 13^1-(2-sulfoethyl) amide dipotassium salt [TOOKAD® Soluble]
- % of negative biopsies (6 months) ([1]; LDI < 1): 31 (4/17) %
- % of negative biopsies (6 months) ([1]; LDI ≥ 1): 83 (10/12) %
- Treatment effect on 1 week MRI as % of PTV ([2]; study PCM201, LDI < 1): 59 (17) % of PTV
- Treatment effect on 1 week MRI as % of PTV ([2]; study PCM201, LDI ≥ 1): 95 (12) % of PTV
- Treatment effect on 1 week MRI as % of PTV ([2]; study PCM203, LDI < 1): 60 (22) % of PTV
- Treatment effect on 1 week MRI as % of PTV ([2]; study PCM203, LDI ≥ 1): 94 (28) % of PTV
